Among the data in ChEMBL document CHEMBL2074404, “Regulation of multidrug resistance-associated protein 2 (ABCC2) by the nuclear receptors pregnane X receptor, farnesoid X-activated receptor, and constitutive androstane receptor” (J Biol Chem, 2002) are Activity values, retold here.

For series [1], the target named is T1, ATP-binding cassette sub-family C member 2 (Homo sapiens, UniProt Q92887). The series is described as follows: TP_TRANSPORTER: Northern blot from HepG2 cells. Format: functional, cell-based.
T1 sequence (Q92887 whole entry): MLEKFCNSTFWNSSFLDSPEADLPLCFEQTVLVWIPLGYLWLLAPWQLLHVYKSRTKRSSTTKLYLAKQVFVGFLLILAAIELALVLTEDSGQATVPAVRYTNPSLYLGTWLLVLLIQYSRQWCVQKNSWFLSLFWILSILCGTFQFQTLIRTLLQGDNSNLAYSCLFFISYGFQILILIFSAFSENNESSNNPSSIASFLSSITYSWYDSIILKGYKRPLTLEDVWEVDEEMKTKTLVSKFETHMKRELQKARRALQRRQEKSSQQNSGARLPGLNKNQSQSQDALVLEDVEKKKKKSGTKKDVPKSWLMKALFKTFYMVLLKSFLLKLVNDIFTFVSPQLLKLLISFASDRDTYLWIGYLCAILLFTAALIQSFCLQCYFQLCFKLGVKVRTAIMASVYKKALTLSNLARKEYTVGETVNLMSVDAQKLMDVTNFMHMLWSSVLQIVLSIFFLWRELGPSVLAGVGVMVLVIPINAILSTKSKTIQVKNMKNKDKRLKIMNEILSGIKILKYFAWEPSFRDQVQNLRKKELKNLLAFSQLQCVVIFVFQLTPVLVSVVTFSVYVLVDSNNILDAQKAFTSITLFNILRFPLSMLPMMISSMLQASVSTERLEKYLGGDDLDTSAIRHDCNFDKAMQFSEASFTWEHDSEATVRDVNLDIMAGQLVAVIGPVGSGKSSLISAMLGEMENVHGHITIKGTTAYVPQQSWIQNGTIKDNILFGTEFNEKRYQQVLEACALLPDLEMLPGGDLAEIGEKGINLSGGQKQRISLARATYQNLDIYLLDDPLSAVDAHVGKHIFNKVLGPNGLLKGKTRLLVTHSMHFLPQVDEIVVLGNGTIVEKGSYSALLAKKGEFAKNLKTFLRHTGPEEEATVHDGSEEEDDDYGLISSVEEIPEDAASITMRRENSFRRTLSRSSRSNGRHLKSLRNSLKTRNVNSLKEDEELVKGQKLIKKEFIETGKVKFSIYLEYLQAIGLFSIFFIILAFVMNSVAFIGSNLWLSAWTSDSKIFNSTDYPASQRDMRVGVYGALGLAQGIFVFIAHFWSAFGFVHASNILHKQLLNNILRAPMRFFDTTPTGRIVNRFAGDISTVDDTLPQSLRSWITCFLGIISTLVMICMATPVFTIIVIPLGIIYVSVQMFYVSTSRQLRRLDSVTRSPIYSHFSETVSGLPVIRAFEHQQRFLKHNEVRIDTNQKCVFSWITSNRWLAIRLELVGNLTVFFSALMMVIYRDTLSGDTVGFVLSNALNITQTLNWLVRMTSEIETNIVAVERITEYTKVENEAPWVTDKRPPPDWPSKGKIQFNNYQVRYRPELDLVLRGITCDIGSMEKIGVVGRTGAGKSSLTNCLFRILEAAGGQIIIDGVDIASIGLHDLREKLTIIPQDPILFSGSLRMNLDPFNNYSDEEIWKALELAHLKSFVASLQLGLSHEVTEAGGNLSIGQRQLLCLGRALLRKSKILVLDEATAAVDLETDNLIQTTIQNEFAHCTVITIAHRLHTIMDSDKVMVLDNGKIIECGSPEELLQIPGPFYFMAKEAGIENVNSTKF
Series [2] deals with ATP-binding cassette sub-family C member 2 (Rattus norvegicus, UniProt Q63120). Put plainly: (§1) TP_TRANSPORTER: Northern blot in vitro, primary hepatocytes. Format: functional, cell-based, Hepatocyte.
ATP-binding cassette sub-family C member 2 (Rattus norvegicus, UniProt Q63120), sequence (Q63120 whole entry): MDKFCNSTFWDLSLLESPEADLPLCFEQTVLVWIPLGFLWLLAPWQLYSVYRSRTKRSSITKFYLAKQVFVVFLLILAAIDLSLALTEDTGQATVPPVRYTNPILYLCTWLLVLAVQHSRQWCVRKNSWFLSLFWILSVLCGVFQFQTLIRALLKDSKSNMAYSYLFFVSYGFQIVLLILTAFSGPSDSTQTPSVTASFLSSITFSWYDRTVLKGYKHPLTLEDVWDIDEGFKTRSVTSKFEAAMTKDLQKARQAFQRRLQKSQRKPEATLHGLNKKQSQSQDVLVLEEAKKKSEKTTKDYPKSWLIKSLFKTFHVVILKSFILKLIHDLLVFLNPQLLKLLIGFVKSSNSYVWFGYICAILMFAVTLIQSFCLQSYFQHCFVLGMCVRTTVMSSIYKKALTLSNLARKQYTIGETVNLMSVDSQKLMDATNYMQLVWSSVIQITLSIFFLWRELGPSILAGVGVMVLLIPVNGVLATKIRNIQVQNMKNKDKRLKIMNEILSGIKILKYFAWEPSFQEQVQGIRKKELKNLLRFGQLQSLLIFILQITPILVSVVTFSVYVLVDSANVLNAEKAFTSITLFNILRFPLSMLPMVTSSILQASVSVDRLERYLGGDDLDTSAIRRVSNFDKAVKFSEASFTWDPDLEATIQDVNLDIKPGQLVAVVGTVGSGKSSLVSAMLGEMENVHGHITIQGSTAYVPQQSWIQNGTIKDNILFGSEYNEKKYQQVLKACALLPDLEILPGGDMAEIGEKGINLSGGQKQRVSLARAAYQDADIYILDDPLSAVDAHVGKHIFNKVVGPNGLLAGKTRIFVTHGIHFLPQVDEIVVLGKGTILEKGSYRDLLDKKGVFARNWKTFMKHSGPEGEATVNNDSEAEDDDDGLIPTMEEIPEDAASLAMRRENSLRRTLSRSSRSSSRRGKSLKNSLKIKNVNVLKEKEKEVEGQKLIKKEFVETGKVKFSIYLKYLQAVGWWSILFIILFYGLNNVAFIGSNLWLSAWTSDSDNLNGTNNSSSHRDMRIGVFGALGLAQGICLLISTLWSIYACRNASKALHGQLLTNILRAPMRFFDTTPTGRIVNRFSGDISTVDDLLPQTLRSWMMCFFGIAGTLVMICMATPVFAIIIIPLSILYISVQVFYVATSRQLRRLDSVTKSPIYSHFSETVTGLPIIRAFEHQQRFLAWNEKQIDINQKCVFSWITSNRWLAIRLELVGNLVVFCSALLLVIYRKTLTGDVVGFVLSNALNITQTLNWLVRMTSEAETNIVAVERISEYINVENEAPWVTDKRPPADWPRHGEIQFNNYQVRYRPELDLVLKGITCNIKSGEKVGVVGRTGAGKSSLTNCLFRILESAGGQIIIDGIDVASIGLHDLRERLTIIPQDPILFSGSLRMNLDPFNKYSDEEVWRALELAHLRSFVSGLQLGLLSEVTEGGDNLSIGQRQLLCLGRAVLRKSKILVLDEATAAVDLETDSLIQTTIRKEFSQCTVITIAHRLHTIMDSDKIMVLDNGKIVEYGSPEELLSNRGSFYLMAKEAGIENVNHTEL
Another series addresses T2, Bile salt export pump (Rattus norvegicus, UniProt O70127).
T2 sequence (O70127 whole entry): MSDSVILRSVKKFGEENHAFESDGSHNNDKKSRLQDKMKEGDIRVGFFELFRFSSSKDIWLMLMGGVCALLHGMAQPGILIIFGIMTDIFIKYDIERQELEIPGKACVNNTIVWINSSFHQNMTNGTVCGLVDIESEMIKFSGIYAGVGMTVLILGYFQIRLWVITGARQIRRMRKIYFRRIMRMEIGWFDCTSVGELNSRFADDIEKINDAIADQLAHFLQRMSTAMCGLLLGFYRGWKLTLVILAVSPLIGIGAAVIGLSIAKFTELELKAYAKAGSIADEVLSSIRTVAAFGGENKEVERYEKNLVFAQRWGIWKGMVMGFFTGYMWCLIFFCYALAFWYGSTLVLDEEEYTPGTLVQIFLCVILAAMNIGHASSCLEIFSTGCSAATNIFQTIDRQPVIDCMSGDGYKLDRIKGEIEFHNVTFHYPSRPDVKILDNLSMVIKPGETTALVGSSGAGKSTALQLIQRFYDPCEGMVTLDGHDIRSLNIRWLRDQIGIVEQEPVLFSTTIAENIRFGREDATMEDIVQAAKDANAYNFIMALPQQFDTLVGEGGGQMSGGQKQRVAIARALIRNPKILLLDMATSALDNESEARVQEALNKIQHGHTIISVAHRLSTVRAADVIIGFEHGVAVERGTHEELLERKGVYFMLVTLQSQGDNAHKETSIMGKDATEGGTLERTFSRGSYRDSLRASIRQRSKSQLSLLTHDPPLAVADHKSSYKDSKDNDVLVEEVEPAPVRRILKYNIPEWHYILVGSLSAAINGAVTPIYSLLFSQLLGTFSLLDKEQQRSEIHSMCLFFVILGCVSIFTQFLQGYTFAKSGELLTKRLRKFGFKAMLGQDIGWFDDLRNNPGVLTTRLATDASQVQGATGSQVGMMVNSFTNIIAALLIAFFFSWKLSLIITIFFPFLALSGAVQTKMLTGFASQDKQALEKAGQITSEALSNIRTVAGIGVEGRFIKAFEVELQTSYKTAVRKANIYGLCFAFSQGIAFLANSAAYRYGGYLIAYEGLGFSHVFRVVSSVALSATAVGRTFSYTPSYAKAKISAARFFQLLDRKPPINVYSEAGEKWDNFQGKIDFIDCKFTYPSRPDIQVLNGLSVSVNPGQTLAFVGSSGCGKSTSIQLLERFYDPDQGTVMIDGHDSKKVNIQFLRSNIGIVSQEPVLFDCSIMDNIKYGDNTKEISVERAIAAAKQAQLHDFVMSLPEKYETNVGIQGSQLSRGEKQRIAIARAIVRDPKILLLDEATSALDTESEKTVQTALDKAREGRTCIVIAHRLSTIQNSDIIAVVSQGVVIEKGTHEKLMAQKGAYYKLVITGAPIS
Described as §1. Format: functional, cell-based, Hepatocyte.

Series [3] addresses T1, ATP-binding cassette sub-family C member 2. The description is as §1. Format: functional, cell-based, Hepatocyte.
The target in series [4] is ATP-binding cassette sub-family C member 2 (Mus musculus, UniProt Q8VI47). Described as §1. The class given is functional, cell-based, Hepatocyte.
ATP-binding cassette sub-family C member 2 (Mus musculus, UniProt Q8VI47), sequence (Q8VI47 whole entry): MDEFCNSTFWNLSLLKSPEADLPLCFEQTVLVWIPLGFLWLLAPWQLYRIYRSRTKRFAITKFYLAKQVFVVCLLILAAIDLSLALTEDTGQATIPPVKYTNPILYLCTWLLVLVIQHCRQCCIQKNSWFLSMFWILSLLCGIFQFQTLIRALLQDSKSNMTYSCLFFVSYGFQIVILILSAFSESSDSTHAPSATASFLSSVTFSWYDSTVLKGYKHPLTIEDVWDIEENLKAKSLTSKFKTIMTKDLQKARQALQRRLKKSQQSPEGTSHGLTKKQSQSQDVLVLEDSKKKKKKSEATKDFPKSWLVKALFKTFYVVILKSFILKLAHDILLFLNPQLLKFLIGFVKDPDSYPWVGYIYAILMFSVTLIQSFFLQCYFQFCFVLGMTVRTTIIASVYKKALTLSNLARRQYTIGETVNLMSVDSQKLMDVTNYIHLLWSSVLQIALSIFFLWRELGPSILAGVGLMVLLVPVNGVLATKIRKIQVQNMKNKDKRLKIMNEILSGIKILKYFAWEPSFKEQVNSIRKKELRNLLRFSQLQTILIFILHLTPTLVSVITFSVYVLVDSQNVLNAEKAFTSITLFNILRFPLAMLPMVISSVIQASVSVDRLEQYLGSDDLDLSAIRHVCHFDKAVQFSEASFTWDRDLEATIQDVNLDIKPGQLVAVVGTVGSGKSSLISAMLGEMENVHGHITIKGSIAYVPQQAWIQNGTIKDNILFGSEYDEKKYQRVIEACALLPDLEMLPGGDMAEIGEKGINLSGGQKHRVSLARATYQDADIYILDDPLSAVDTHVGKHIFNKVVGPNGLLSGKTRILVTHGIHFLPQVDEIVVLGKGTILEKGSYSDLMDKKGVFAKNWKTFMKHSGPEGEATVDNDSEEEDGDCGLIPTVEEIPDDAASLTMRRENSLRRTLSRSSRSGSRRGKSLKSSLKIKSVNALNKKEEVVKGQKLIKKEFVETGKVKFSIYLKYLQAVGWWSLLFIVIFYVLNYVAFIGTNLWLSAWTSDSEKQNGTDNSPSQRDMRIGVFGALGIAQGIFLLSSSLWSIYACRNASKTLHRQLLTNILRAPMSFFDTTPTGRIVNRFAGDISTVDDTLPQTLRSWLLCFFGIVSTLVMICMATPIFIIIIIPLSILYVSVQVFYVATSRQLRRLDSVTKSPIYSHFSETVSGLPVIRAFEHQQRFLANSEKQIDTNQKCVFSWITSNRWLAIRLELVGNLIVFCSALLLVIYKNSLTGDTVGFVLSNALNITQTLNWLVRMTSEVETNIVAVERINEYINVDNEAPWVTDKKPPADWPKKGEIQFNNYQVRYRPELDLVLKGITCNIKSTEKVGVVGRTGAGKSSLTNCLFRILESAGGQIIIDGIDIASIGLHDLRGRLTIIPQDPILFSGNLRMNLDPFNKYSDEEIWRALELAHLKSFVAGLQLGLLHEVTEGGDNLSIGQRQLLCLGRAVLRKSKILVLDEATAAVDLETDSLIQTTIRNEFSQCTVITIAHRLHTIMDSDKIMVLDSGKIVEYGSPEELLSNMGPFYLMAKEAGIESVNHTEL

For `CC(C)c1onc(-c2c(Cl)cccc2Cl)c1COc1ccc(/C=C/c2cccc(C(=O)O)c2)c(Cl)c1`, the Activity entry (in series [1]; in series [2]; on Bile salt export pump) was “inducer [+]” in each case.
For `CC(C)=CCC[C@]1(C)[C@@H](CC=C(C)C)C[C@]2(CC=C(C)C)C(=O)C(CC=C(C)C)=C(O)[C@@]1(C(=O)C(C)C)C2=O`, the Activity entry in series [3] was “inducer [+]”.
In the case of `C[C@H](CCC(=O)O)[C@H]1CC[C@H]2[C@@H]3[C@H](O)C[C@@H]4C[C@H](O)CC[C@]4(C)[C@H]3CC[C@]12C` [CHENODIOL], the Activity result in series [1] was “inducer [+]”.
Regarding `CC(=O)[C@H]1[C@H](C#N)C[C@H]2[C@@H]3CC=C4C[C@@H](O)CC[C@]4(C)[C@H]3CC[C@@]21C` [PREGNENOLONE CARBONITRILE], the Activity entry (in series [2]; at Bile salt export pump; in series [4]) was “inducer [+]” in each case.
On to `CCC1(c2ccccc2)C(=O)NC(=O)NC1=O` [PHENOBARBITAL], for which the Activity entry (at Bile salt export pump; in series [4]) was “inducer [+]” throughout.
